Data published in patent US9062050B2, “Inhibitor of JAK1 and JAK2” (Eli Lilly and Company, priority 2012, dated 2015).

System: IL-6-STAT3 signaling
Experiment: DS1-AlphaScreen-pSTAT3 cell-based assay
Settings: DS1 cells, IL6 10 ng/ml; read-out: IC50, inhibits IL-6-STAT3 signaling (pSTAT3)
Protocol: The DS1-AlphaScreen-pSTAT3-cell-based assay is used to examine the potency of compounds at blocking the IL6-stimulated STAT3 pathway. The JAK-STAT3 pathway is constitutively active in many types of cancers and is implicated in tumor cells for increasing proliferation, survival, and invasion. DS1 cells (ATCC) are cultured in RPMI complete medium with 10% FBS and then adopted and grown in DMEM/High Modified medium supplemented with 10% FBS at 37° C. at 95% humidity and under an atmosphere of 5% CO2. DS1 cells are plated at a density of 4×10^4 cells/well in 96 well-plates and cultured in serum-free culture medium at 37° C. for three hours, followed by pre-treatment either with vehicle alone (DMSO) or test compounds across a range of final concentrations from 0-20 μM for 10 min. IL6 (R&D System, 206-IL) is then added into the cell culture at 10 ng/ml final concentration, which is continued for an additional 30 min at 37° C. Finally, cells are lysed with 5× alpha lysis buffer and transferred to a 384-well plate (PerkinElmer, #6008280) filled with the reaction mixture (TGR Biosciences, South Australia, Australia, #TGRS3S10K) for pSTAT3 detection (#TGRS3SHV100). The plates are sealed and incubated at room temperature for 2 hours, and pSTAT3 is measured by using an Envision06 plate reader (TGR Biosciences, South Australia, Australia). The data are analyzed with ActivityBase 4.0.

`Cc1cc(Nc2ccc3ncn([C@@H]4CCc5ccc(F)cc54)c3n2)[nH]n1.Cl.Cl` [Example 1, 3-[(1R)-6-fluoro-2,3-dihydro-1H-inden-1-yl]-N-(3-methyl-1H-pyrazol-5-yl)-3H-imidazo[4,5-b]pyridin-5-amine dihydrochloride] gave an IC50 of 66 nM.
